In ChEMBL document CHEMBL1275271, “QSAR and docking studies of novel antileishmanial diaryl sulfides and sulfonamides” (Eur J Med Chem, 2010):

Assays:
Leishmania donovani = assay: Antileishmanial activity against Leishmania donovani; type: functional, organism-based
[1] = Toxicity in po dosed mouse; conditions: in vivo
[2] = Octanol-water partition coefficient, log P of the compound
in vivo = conditions: rat, po

IC50 (Leishmania donovani) [µM] | Structure (SMILES) | LD50 [1] [mg/kg] | logP [2] | LD50 (in vivo) [mg/kg]
60 | O=C1NC(=O)c2cc([N+](=O)[O-])c(Sc3c(Cl)cccc3Cl)cc21 | – | – | –
– | O=[N+]([O-])c1cc([N+](=O)[O-])c(S(=O)(=O)Nc2cccc(F)c2)c(C(F)(F)F)c1 | 880 | 4.39 | 620
– | CCCN(CCC)c1c([N+](=O)[O-])cc(Sc2cc(C)c(Cl)cc2Cl)cc1[N+](=O)[O-] | 1800 | 8.66 | 1600
32 | CCCN(CCC)c1c([N+](=O)[O-])cc(C(N)=O)cc1[N+](=O)[O-] | – | – | –
98.2 | Cc1cc(Sc2ncc(C(F)(F)F)cc2[N+](=O)[O-])c(Cl)cc1Cl | – | – | –
80 | O=[N+]([O-])c1ccc(Oc2c(Cl)cccc2Cl)c([N+](=O)[O-])c1Oc1c(Cl)cccc1Cl | – | – | –
– | Cc1cc(S(=O)(=O)c2c([N+](=O)[O-])cc(C(F)(F)F)cc2[N+](=O)[O-])c(Cl)cc1Cl | 1800 | 5.72 | 1200
– | N#Cc1cc([N+](=O)[O-])c(S(=O)(=O)Nc2cccc(F)c2)c([N+](=O)[O-])c1 | 1300 | 2.51 | 1200
– | Cc1cc(S(=O)(=O)c2c([N+](=O)[O-])cc(C#N)cc2[N+](=O)[O-])c(Cl)cc1Cl | 1100 | 4.08 | 1000
12 | CCCCCCN(CCCCCC)c1c([N+](=O)[O-])cc(S(N)(=O)=O)cc1[N+](=O)[O-] | – | – | –
– | O=[N+]([O-])c1cc(C(F)(F)F)cc([N+](=O)[O-])c1Sc1ccc(Cl)cc1Cl | 780 | 6.73 | 600
– | CCCN(CCC)c1c([N+](=O)[O-])cc(S(N)(=O)=O)cc1[N+](=O)[O-] [ORYZALIN] | 1600 | 3.38 | 1400
59 | Cc1cc(Sc2ccc(C(F)(F)F)cc2[N+](=O)[O-])c(Cl)cc1Cl | – | – | –
– | CCCN(CCC)c1c([N+](=O)[O-])cc(Sc2ccc(OC)cc2)cc1[N+](=O)[O-] | 1600 | 6.53 | 1900
21 | Cc1nc(Sc2nccn2-c2cc(Cl)ccc2Cl)c(C(=O)O)cc1C#N | – | – | –
– | Cc1cc(NS(=O)(=O)c2c([N+](=O)[O-])cc([N+](=O)[O-])cc2C(F)(F)F)c(Cl)cc1Cl | 650 | 6.44 | 350
76 | CCCN(CCC)c1c([N+](=O)[O-])cc(S(=O)(=O)Nc2ccc(OC)cc2)cc1[N+](=O)[O-] | – | – | –

Structure (SMILES) | IC50 (Leishmania donovani) [µM] | LD50 [1] [mg/kg] | logP [2] | LD50 (in vivo) [mg/kg]
COc1ccc(Sc2c([N+](=O)[O-])cc(C#N)cc2[N+](=O)[O-])cc1 | 0.67 | 1100 | 3.56 | 1400
